Source: the supplement of paper PMC10307832

Tests used:
Test in all cases: relative viability (nuclei count vs DMSO), 5 days (fraction); higher = more cells survive
5-Fluorouracil + OSI-027 = compound: O=c1[nH]cc(F)c(=O)[nH]1 [5-Fluorouracil] + COc1cccc2cc(-c3nc([C@H]4CC[C@H](C(=O)O)CC4)n4ncnc(N)c34)[nH]c12 [OSI-027] (partner 0.5 µM)
Procedure, shortened: (§1)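 Lung cancer cell lines were pin-tool dosed in 1536-well plates on the day after seeding, with either a lone drug or a fixed anchor-drug dose plus five library-drug doses (not always all listed) in √10 steps. Nuclei were counted on 4× images after 5 days. Relative viability is the ratio of treated-well to vehicle-well nuclei counts, with each value a median of duplicate plates.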

Sulindac + Navitoclax = compound: CC1=C(CC(=O)O)c2cc(F)ccc2/C1=C\c1ccc([S+](C)[O-])cc1 [Sulindac] + CC1(C)CCC(c2ccc(Cl)cc2)=C(CN2CCN(c3ccc(C(=O)NS(=O)(=O)c4ccc(N[C@H](CCN5CCOCC5)CSc5ccccc5)c(S(=O)(=O)C(F)(F)F)c4)cc3)CC2)C1 [Navitoclax] (partner 0.5 µM)
Procedure, shortened: as §1

Staurosporine + Olaparib = compound: CN[C@@H]1C[C@H]2O[C@@](C)([C@@H]1OC)n1c3ccccc3c3c4c(c5c6ccccc6n2c5c31)C(=O)NC4 [Staurosporine] + O=C(c1cc(Cc2n[nH]c(=O)c3ccccc23)ccc1F)N1CCN(C(=O)C2CC2)CC1 [Olaparib] (partner 8 µM)
Procedure, shortened: as §1

Sulindac + Alpelisib = compound: CC1=C(CC(=O)O)c2cc(F)ccc2/C1=C\c1ccc([S+](C)[O-])cc1 [Sulindac] + Cc1nc(NC(=O)N2CCC[C@H]2C(N)=O)sc1-c1ccnc(C(C)(C)C(F)(F)F)c1 [Alpelisib] (partner 2 µM)
Procedure, shortened: as §1

For UMC-11, which relative viability (5-Fluorouracil + OSI-027; first compound 0.02 µM) is on record?
Its relative viability is 0.445.

And the relative viability (5-Fluorouracil + OSI-027; first compound 0.2 µM)?
The relative viability was 0.477.

And the relative viability (5-Fluorouracil + OSI-027; first compound 0.6325 µM)?
The relative viability was 0.406.

What about the relative viability (5-Fluorouracil + OSI-027; first compound 2 µM) of the same cell line?
Its relative viability is 0.372.

What about the relative viability (Sulindac + Navitoclax; first compound 0.08 µM) of the same cell line?
Its relative viability is 0.3.

What about the relative viability (Sulindac + Navitoclax; first compound 0.253 µM) of the same cell line?
Its relative viability is 0.305.

What about the relative viability (Sulindac + Navitoclax; first compound 0.8 µM) of the same cell line?
Its relative viability is 0.309.

And the relative viability (Sulindac + Navitoclax; first compound 2.53 µM)?
The relative viability was 0.292.

And the relative viability (Sulindac + Navitoclax; first compound 8 µM)?
The relative viability was 0.38.

What about the relative viability (Staurosporine + Olaparib; first compound 0.005 µM) of the same cell line?
Its relative viability is 0.375.

And the relative viability (Staurosporine + Olaparib; first compound 0.01581 µM)?
Its relative viability is 0.212.

What about the relative viability (Staurosporine + Olaparib; first compound 0.05 µM) of the same cell line?
Its relative viability is 0.154.

What about the relative viability (Staurosporine + Olaparib; first compound 0.1581 µM) of the same cell line?
Its relative viability is 0.0879.

And the relative viability (Staurosporine + Olaparib; first compound 0.5 µM)?
Its relative viability is 0.0921.

And the relative viability (Sulindac + Alpelisib; first compound 0.08 µM)?
The relative viability was 1.1.

What about the relative viability (Sulindac + Alpelisib; first compound 0.253 µM) of the same cell line?
The relative viability was 1.05.

And the relative viability (Sulindac + Alpelisib; first compound 0.8 µM)?
The relative viability was 0.876.

And the relative viability (Sulindac + Alpelisib; first compound 2.53 µM)?
The relative viability was 0.98.

What about the relative viability (Sulindac + Alpelisib; first compound 8 µM) of the same cell line?
The relative viability was 1.11.
